Experimental data published in US11375929B2, “Method and device for detection of bioavailable drug concentration in a fluid sample” (THE UNIVERSITY OF TENNESSEE RESEARCH FOUNDATION, priority 2008, dated 2022).

Assay: membrane/water partition coefficient calculated from CV peak current ratio of uncoated and PVC membrane-coated GC electrode (Equation 1)
Assay type: physicochemical

CC(=O)Nc1ccc(O)cc1 [APAP, 4-acetamidophenol]
Pmw (membrane/water partition coefficient) (PVC membrane I (o-NPOE), Cw=1 mM, iw/im ~140, Dm=4×10^−8 cm^2/s, Dw=8×10^−6 cm^2/s): 0.1
Pmw (membrane/water partition coefficient) (membrane III (DOS), same protocol): 0.5
Pmw (membrane/water partition coefficient) (membrane V (1-octanol), same protocol): 1.6
